# Experiments:
# TYRO3 = molecular target: T1, TYRO3 (Homo sapiens, UniProt Q06418); assay: TR-FRET kinase activity assay, TYRO3; assay type: biochemical; conditions: ATP at Km, 60 minutes
# T1 sequence (Q06418 41-890): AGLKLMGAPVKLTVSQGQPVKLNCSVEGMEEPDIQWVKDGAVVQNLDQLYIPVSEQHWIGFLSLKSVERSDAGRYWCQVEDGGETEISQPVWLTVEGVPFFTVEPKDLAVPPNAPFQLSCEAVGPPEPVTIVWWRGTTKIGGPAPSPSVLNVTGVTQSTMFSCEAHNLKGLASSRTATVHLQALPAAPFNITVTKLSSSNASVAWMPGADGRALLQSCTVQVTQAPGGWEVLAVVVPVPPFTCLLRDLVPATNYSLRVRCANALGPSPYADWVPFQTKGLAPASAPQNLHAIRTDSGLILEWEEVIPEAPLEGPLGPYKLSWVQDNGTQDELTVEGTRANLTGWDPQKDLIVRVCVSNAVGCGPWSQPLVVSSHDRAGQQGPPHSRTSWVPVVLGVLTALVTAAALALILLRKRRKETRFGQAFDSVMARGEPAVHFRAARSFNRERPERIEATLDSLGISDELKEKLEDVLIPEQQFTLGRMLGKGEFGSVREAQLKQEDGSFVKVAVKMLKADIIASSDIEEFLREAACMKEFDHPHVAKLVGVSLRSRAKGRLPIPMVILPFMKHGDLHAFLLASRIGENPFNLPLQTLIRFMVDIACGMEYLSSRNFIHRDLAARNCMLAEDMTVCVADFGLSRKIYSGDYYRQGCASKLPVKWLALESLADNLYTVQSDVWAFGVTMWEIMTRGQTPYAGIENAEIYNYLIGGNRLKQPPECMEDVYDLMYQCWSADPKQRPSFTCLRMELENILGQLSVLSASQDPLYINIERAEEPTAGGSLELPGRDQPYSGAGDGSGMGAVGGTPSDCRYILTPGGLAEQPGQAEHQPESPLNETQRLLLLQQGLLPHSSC
# Outline: (§1)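 IC50 reflects the drop in TR-FRET between Eu anti-phosphotyrosine antibody and labelled peptide after a 60-minute room-temperature reaction. Buffer was 50 mM HEPES pH 7.5 with 10 mM MgCl2, 1 mM EGTA, 0.01% Brij 35 and 1 mM DTT, with ATP at Km per enzyme and EDTA quench.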
# MERTK = molecular target: T2, MERTK (Homo sapiens, UniProt Q12866); assay: TR-FRET kinase activity assay, MERTK; assay type: biochemical; conditions: for IC50: TR-FRET activity assay, ATP at Km, 60 minutes, read-out: Mer IC50
# T2 sequence (Q12866 21-999): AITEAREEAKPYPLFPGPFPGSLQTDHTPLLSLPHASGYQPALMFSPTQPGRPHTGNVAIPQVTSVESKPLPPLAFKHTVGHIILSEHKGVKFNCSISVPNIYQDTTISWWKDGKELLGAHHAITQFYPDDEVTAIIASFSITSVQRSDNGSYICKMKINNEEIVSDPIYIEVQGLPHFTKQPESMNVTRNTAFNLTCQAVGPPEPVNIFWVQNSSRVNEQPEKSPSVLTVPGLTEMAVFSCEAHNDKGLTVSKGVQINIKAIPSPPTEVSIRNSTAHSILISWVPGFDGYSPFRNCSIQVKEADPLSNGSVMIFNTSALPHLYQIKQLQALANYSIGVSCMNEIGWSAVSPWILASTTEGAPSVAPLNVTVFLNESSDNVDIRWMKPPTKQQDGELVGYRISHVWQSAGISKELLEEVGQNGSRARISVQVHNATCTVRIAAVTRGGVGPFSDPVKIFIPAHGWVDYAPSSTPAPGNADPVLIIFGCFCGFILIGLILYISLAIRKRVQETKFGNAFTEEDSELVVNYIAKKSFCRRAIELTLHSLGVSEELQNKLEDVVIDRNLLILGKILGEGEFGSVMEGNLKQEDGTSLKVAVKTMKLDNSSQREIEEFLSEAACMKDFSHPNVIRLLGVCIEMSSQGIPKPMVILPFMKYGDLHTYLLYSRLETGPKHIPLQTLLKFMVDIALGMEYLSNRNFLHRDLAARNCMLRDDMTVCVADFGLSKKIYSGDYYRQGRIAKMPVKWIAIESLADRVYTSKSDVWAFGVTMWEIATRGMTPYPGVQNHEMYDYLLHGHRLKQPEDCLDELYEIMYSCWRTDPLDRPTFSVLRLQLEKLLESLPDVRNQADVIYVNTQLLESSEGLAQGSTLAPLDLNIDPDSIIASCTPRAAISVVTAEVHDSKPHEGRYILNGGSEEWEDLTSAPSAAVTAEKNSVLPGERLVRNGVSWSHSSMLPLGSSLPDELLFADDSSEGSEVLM
# Outline: as §1
# [1] = ratio calculated as FLT3 IC50/Mer IC50
# [2] = ratio of Mer to FLT3: FLT3 IC50/Mer IC50
SMILES,IC50 (TYRO3),IC50 (MERTK),FLT3/Mer ratio (FLT3 IC50/Mer IC50) (MERTK; [1]),FLT3/Mer ratio (FLT3 IC50/Mer IC50) (MERTK; [2])
CC(CC1COC1)Nc1ncc2c(-c3cnn(C4COC4)c3)cc([C@H]3CC[C@H](O)CC3)n2n1 (mixture of isomers) [Compound 447],1 to 10 µM,1 to 10 µM,+ (“+” represents a ratio of >2.0 and <10),
"CC[C@H](C)Nc1ncc2c(-c3ccc(CN4CCN(C)CC4)cc3)cc([C@H]3CC[C@](C)(O)CC3)n2n1 (relative stereo) [Compound 132, (trans)-4-(2-((S)-sec-butylamino)-5-(4-((4-methylpiperazin-1-yl)methyl)phenyl)pyrrolo[2,1-f][1,2,4]triazin-7-yl)-1-methylcyclohexanol]",≤ 0.1 µM,≤ 0.1 µM,,++ (“++” represents a ratio of between 10 and 100)
"CC[C@H](C)Nc1ncc2c(-c3ccc(CN4CCN(C)CC4)cc3)cc(C3CCC(C)(O)CC3)n2n1 (stereo in doubt) [Compound 131, (cis)-4-(2-((S)-sec-butylamino)-5-(4-((4-methylpiperazin-1-yl)methyl)phenyl)pyrrolo[2,1-f][1,2,4]triazin-7-yl)-1-methylcyclohexanol]",≤ 0.1 µM,≤ 0.1 µM,,+++ (“+++” represents a ratio of >100)
CCC1(Nc2ncc3c(-c4ccc(CN5CCN(C)CC5)cc4)cc([C@H]4CC[C@H](O)CC4)n3n2)CCC1 [Compound 126],0.1 to 1 µM,≤ 0.1 µM,,++ (“++” represents a ratio of between 10 and 100)
CCCCC[C@H](C)Nc1ncc2c([C@H]3CC[C@@H](C(=O)N4CCN(C)CC4)CC3)cc([C@H]3CC[C@H](O)CC3)n2n1 [Compound 127],≤ 0.1 µM,≤ 0.1 µM,,+++ (“+++” represents a ratio of >100)
CC[C@H](C)Nc1ncc2c(C3=CCOCC3)cc([C@H]3CC[C@H](O)CC3)n2n1 [Compound 128],≤ 0.1 µM,≤ 0.1 µM,,++ (“++” represents a ratio of between 10 and 100)
"CC[C@H](C)Nc1ncc2c(C3CCOCC3)cc([C@H]3CC[C@H](O)CC3)n2n1 [Compound 129, (trans)-4-(2-((S)-sec-butylamino)-5-(tetrahydro-2H-pyran-4-yl)pyrrolo[2,1-f][1,2,4]triazin-7-yl)cyclohexanol]",≤ 0.1 µM,≤ 0.1 µM,,+++ (“+++” represents a ratio of >100)
CC[C@H](C)Nc1ncc2c(C3=CCNCC3)cc([C@H]3CC[C@H](O)CC3)n2n1 [Compound 130],≤ 0.1 µM,≤ 0.1 µM,,+++ (“+++” represents a ratio of >100)
COC[C@H](C)Nc1ncc2c(-c3ccc(CC(=O)O)cc3)cc([C@H]3CC[C@H](O)CC3)n2n1 [Compound 133],≤ 0.1 µM,≤ 0.1 µM,,+++ (“+++” represents a ratio of >100)
COC[C@H](C)Nc1ncc2c(-c3ccc(-c4nn[nH]n4)cc3)cc([C@H]3CC[C@H](O)CC3)n2n1 [Compound 134],≤ 0.1 µM,≤ 0.1 µM,,+++ (“+++” represents a ratio of >100)

# Second part, the compound after the results:
IC50 (TYRO3),IC50 (MERTK),FLT3/Mer ratio (FLT3 IC50/Mer IC50) (MERTK; [1]),FLT3/Mer ratio (FLT3 IC50/Mer IC50) (MERTK; [2]),SMILES
≤ 0.1 µM,≤ 0.1 µM,+++ (“+++” represents a ratio of >100),,"COC[C@H](C)Nc1ncc2c(-c3cnn(C4COC4)c3)cc([C@H]3CC[C@](C)(O)CC3)n2n1 (single isomer, unassigned) [Compound 452]"
≤ 0.1 µM,≤ 0.1 µM,+++ (“+++” represents a ratio of >100),,"COC[C@H](C)Nc1ncc2c(-c3cnn(C4COC4)c3)cc([C@H]3CC[C@@](C)(O)CC3)n2n1 (single isomer, unassigned) [Compound 453]"
≤ 0.1 µM,≤ 0.1 µM,+++ (“+++” represents a ratio of >100),,COC[C@H](C)Nc1ncc2c(-c3ccnc(N4CCOCC4=O)c3)cc([C@H]3CC[C@H](O)CC3)n2n1 [Compound 423]

# — US11040981B2, “Pyrrolotriazine compounds and methods of inhibiting TAM kinases” (Syros Pharmaceuticals, Inc., priority 2017, dated 2021)
